Data published in US9868736B2, “Deubiquitinase inhibitors and methods for use of the same” (THE REGENTS OF THE UNIVERSITY OF MICHIGAN, priority 2013, dated 2018).
Values after ≈ are worked out from the molar mass of the structure shown. Where two headings read alike, the source gives them in different places.

Assays:
[1] = target: T1, catalytic domain of Usp9x (Usp9xCD) (Homo sapiens, UniProt Q93008); assay: Usp9xCD Ub-AMC enzyme assay; format: biochemical; details: 300 nM Usp9xCD, 30 min at 37° C. with inhibitor, 1.5 μM Ub-AMC
T1 construct: DNA corresponding to amino acids 1553-1960 of human Usp9x; His6-Smt3 (SUMO) fusion tag, ULP1-cleavable (N, cleaved yes); made in house; host or cells: E. coli
T1 sequence (Q93008 1553-1960): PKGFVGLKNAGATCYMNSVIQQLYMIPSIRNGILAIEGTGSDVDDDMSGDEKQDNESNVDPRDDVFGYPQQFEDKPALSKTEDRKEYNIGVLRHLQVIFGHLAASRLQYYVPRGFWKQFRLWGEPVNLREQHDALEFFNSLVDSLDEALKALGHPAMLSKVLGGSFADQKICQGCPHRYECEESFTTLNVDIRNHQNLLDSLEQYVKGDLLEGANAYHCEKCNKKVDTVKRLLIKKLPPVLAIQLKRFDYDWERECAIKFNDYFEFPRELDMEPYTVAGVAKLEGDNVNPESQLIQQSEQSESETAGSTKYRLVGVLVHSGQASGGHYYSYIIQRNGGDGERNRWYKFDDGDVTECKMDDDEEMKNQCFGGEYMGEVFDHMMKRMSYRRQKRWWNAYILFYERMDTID
Experimental: A series of chemical modifications were initiated to increase our structure activity relationship (SAR) analysis of inhibitors. […] The DNA was cloned into a ULP1-protease cleavable N-terminal His6-Smt3-fusion tag expression vector, derived from pET-28. Protein expression was induced at OD600 2.0, in TB media with Kanamycin overnight at 16° C. Cells were harvested and flash frozen before use. […] Protein was concentrated to roughly 20-40 mg/ml before aliquots were flash-frozen. All steps were performed in the presence of reducing agents, either BME, DTT, or TCEP.
Purified recombinant enzyme in buffer containing 2 mM DTT was buffer exchanged into 25 mM Tris-HCl, 50 mM NaCl and 1 mg/ml BSA using a spin column. […] IC50 values were estimated by integrating the slope of each reaction using GraphPad 6.
Two hundred and ten (210) novel chemical structures were screened for Usp9xCD inhibitory activity using this assay. […] Fluorescent scans were used to assess Usp9xCD inhibitory activity in this enzyme assay for all compounds of interest. Each assay was performed in duplicate and the linear region of each reaction curve was used to calculate IC50 values for Usp9xCD inhibition which are tabulated in Table 1.

Mcl-1, PARP = assay: Mcl-1 level and PARP cleavage in treated tumor cells; format: cell-based; details: Z138 lymphoma cells, 1.25, 2.5 and 5 μM, 4 hours
aqueous solubility = format: physicochemical
[2] = background statement; cited from earlier work
Usp9x = Usp9x (Homo sapiens, UniProt Q93008); assay: DUB activity (HA-Ub vinyl-sulfone labelling) in lysates of treated intact cells; format: cell-based; design: endogenous in cells; host or cells: Z138 lymphoma, MM1.S/MM1.ST myeloma, primary PCL cells, A375 and vemurafenib-resistant A375 melanoma; details: Z138 lymphoma cells, 1.25, 2.5 and 5 μM, 4 hours
Usp9x, sequence (Q93008 whole entry): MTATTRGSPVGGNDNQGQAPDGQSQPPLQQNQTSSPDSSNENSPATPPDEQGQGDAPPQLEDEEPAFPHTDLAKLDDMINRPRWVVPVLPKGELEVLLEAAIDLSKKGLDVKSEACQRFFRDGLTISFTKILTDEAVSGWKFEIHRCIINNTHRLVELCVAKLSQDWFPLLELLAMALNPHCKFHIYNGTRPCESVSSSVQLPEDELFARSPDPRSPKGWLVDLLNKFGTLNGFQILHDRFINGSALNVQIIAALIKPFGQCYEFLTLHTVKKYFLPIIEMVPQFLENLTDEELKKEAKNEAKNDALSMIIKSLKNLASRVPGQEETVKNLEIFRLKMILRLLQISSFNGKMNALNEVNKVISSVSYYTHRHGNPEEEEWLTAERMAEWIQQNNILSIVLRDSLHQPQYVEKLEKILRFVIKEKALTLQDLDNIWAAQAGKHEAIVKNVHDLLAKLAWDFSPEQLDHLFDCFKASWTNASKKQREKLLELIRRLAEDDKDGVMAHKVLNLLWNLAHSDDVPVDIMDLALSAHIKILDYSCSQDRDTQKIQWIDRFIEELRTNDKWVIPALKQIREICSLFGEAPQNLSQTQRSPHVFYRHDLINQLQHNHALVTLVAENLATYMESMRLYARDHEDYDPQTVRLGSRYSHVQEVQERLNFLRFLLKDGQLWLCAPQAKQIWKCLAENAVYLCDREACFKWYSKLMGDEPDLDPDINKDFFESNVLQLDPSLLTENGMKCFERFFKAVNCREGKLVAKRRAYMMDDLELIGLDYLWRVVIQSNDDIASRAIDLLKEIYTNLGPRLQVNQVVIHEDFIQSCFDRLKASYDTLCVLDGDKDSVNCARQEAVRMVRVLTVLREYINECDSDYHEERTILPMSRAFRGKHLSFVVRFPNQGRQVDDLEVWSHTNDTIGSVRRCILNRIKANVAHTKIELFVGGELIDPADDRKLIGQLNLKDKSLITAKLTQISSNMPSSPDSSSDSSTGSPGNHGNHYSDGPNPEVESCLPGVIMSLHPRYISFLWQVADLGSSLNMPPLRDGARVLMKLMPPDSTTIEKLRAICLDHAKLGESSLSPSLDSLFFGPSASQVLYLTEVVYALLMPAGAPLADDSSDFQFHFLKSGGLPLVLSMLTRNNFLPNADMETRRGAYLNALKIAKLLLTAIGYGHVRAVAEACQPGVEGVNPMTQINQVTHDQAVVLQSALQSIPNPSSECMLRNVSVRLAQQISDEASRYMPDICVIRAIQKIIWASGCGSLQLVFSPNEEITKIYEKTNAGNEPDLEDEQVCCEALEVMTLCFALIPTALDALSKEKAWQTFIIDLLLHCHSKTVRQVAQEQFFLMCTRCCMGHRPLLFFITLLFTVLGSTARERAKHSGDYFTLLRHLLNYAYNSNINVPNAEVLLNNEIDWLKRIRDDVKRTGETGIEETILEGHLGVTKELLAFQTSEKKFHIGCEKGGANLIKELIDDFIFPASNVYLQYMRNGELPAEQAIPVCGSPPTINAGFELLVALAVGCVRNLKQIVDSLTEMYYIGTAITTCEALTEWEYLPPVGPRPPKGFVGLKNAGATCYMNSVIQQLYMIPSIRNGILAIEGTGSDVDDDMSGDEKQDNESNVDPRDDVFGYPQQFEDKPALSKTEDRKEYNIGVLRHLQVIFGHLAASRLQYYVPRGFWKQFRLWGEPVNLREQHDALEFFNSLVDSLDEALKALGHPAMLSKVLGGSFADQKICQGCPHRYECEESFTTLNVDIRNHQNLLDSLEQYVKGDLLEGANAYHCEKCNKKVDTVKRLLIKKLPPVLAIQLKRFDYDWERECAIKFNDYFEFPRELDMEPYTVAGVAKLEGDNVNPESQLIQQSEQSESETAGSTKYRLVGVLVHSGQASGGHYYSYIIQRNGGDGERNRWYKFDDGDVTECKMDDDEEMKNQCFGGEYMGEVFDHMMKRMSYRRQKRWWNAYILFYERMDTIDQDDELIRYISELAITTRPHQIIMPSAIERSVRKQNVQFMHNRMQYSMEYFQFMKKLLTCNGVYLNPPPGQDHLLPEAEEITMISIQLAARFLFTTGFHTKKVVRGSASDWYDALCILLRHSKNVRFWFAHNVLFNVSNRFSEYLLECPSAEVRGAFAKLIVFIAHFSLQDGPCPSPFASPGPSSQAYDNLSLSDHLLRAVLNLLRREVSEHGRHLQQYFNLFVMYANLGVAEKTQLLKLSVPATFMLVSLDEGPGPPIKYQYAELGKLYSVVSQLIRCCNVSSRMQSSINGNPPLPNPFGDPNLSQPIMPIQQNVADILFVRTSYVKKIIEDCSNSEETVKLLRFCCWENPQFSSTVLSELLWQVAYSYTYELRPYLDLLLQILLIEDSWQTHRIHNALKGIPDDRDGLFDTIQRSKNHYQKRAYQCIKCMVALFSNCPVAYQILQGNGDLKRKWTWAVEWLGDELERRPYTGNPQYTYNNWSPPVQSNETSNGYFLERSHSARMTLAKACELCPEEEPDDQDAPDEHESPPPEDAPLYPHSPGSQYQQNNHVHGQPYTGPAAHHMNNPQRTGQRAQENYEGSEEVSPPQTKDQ
Experimental: In brief, control and treated cells were lysed by sonication in DUB assay buffer [50 mM Tris-HCl (pH 7.5), 5 mM MgCl2, 250 mM sucrose, 1 mM PMSF, 1× Roche proteinase inhibitory cocktail] and 20 μg of protein from the supernatant fraction (after a 14,000×g spin) were incubated with 200 nM HA-Ub vinyl-sulfone (Boston Biochem) in a final volume of 20 μl. After 90 min at 37° C., reactions were stopped with the addition of 5×-sample buffer. DUB activity was detected by SDS-PAGE resolution of the protein followed by nitrocellulose membrane transfer and immunoblotting with anti-HA.
The time required for G9-mediated Usp9x inhibition in intact multiple myeloma (MM1.S) cells and primary tumor cells from a patient with plasma cell leukemia (PCL) was investigated. MM1.ST (FIG. 1, left) or PCL (FIG. 1, right) cells were treated with 5 μM of compound for the time indicated before Usp9x activity was assessed as described above.

[3] = test system: vemurafenib sensitive and resistant A375 melanoma cells; assay: in vitro anti-tumor efficacy in A375 melanoma cells; format: cell-based; details: A375 cells, Usp5 knockdown
Description: Similar results were obtained in A375R Usp5 KD cells treated with a MEK inhibitor.

solubility (aqueous solubility) [µM]	reduction of the vemurafenib IC50 concentration by Usp5 KD [3]	SMILES	IC50 [1] [µM]	level of Mcl-1 (Mcl-1, PARP)	solubility [2]	Usp9x activity in intact cells (Usp9x)
2.6 (≈ 0.999 µg/mL)	–	CCC[C@H](NC(=O)/C(C#N)=C/c1cccc(Br)n1)c1ccccc1 [WP1130, reference compound]	4.8	reduce the level of a downstream target of Usp9x	poor solubility	able to inhibit Usp9x activity in intact cells
–	–	CCCC(NC(=O)/C(C#N)=C/c1nc(Cl)ccc1Cl)c1ccc(OCCN2CCOCC2)cc1 (stereo not shown) [drawing 26]	1.6	–	–	–
–	about 2 fold	CCCS(=O)(=O)Nc1ccc(F)c(C(=O)c2c[nH]c3ncc(-c4ccc(Cl)cc4)cc23)c1F [vemurafenib, reference compound]	–	–	–	–
